Data reported in PMC10917278, “Structural insights into the modulation Of SOD1 aggregation By a fungal metabolite Phialomustin-B: Therapeutic potential in ALS” (PLOS ONE, 2024).

Molecular target: T1, SOD1^A4V (Homo sapiens, UniProt P00441, A5V)
T1 construct: The full-length constructs of SOD1-wild type (aa: 1–145) and its corresponding SOD1 disease mutant, SOD1^A4V; His-tag (cleaved yes); made in house; host or cells: E. coli BL21 DE3
Assay: Analytical size-exclusion chromatography (SEC) aggregation assay, SOD1^A4V
Type: biochemical
Method: Fig 6 Aggregation studies of metallated and reduced SOD1^WT and SOD1^A4V on treatment with PB. ThT fluorescence was monitored during the co-incubation of metallated SOD1^WT (50 μM) (a) or SOD1^A4V (50 μM) (b) with PB at 1:30 molar ratio at 37 °C with continuous shaking, under reduced conditions. The values were normalized to the maximal ThT intensity elicited by SOD1^WT or SOD1^A4V and fitted to a Boltzmann sigmoidal equation. The control and PB-treated species were compared to analyse the effects of PB on the aggregation of SOD1^WT and SOD1^A4V. Error bars indicate the standard deviation. Analytical SEC of metallated SOD1^WT (50 μM) (c) and SOD1^A4V (50 μM) (d) with PB were analyzed under reducing conditions before and after 24 hrs and 48 hrs incubation at 37 °C. The first peak eluting at the volume was denoted as oligomerized SOD1^WT/SOD1^A4V (L). The second, third, and fourth peaks were calculated as trimer (T), dimer (D), and monomer (M) species of SOD1^WT/SOD1^A4V running at 14.5 ml, 15.7 ml, and 16.5 ml, respectively. […]
Fig 7 Aggregation studies of de-metallated and reduced SOD1^WT and SOD1^A4V on treatment with PB. ThT fluorescence was monitored during the co-incubation of de-metallated SOD1^WT (50 μM) (a) or SOD1^A4V (50 μM) (b) with PB at 1:30 molar ratio at 37 °C with continuous shaking, under reduced conditions. […] Analytical SEC of de-metallated SOD1^WT (50 μM) (a) and SOD1^A4V (50 μM) (b) with PB were analysed under reducing conditions before and after 24 hrs and 48 hrs incubation at 37 °C. […] The second, third, and fourth peaks were calculated as trimer (T), dimer (D), and monomer (M) species of SOD1^WT/SOD1^A4V running at 14.5 ml, 15.7 ml, and 16.5 ml, respectively. […]
The anti-aggregation activity of PB was validated on the SOD1^WT and the disease mutant (SOD1^A4V) through size exclusion chromatography. The analytical size-exclusion chromatography is a gold standard method for comprehensively evaluating protein species through their molecular weight variations detected by the protein peaks’ elution volume (Ve). […]

T1 sequence (P00441 whole entry A5V): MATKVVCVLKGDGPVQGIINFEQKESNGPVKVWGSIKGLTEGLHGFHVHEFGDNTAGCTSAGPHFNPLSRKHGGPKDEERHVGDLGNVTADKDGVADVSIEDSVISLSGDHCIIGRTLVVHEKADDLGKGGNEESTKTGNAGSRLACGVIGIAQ

CCCC[C@H](C)/C=C(C)/C=C/C(=O)O [PB, (S, 2E, 4E)-4,6-dimethyldeca-2,4-dienoic acid]
trimer population (SEC) (De-metallated (EDTA) SOD1^A4V 50 μM, PB 30X, reducing conditions): reduces the trimer population
trimer populations (SEC) (Metallated SOD1^A4V 50 μM, PB 60X, reducing conditions): trimer populations were significantly reduced
formation of toxic trimer species (SEC) (Metallated SOD1^A4V 50 μM, PB at a ratio of 1:30, reducing conditions): visibly reduced the formation of toxic trimer species
